Experimental findings from ChEMBL document CHEMBL1133192, “sp2-bridged diaryl retinoids: effects of bridge-region substitution on retinoid X receptor (RXR) selectivity” (Bioorg Med Chem Lett, 2000) are described below.

One may read the IC50 as the point on the concentration scale where inhibition reaches its midpoint. Read a low IC50 as higher potency. The term AC50 denotes the concentration giving half of the maximal activity seen. Usually inhibition stands for the share of the control response that was lost under treatment. Lower therefore signals a weak effect.

Active and inactive are the calls of the source. The rule behind the calls is not given here.

Experiment [1] deals with MDA-MB-231. The experiment is described as follows: Inhibition of MDA-MB-231 cell proliferation after seven days. It is filed as functional, cell-based. The settings on record: Homo sapiens, MDA-MB-231, 168 h.
For experiment [2], the target named is T1, Retinoic acid receptor RXR-alpha (Homo sapiens, UniProt P19793).
T1 sequence (P19793 whole entry): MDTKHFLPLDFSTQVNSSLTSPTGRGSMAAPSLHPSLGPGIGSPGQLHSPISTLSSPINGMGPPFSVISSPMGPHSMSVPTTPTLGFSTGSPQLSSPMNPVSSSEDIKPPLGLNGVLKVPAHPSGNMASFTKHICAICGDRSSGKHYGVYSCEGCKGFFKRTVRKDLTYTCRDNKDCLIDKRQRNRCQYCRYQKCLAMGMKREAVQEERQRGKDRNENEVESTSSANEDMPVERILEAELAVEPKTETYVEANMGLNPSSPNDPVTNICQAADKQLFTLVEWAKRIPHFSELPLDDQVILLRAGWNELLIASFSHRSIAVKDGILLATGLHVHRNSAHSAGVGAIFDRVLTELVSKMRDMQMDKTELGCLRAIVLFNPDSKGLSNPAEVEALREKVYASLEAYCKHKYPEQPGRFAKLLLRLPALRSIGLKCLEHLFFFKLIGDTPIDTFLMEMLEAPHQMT
The experiment is described as follows: Transcriptional activation in CV-1 cells expressing Retinoid X receptor RXR-alpha. It is filed as cell-based, Cercopithecidae.

The target of experiment [3] is T2, Retinoic acid receptor alpha (Homo sapiens) (UniProt P10276).
T2 sequence (whole entry): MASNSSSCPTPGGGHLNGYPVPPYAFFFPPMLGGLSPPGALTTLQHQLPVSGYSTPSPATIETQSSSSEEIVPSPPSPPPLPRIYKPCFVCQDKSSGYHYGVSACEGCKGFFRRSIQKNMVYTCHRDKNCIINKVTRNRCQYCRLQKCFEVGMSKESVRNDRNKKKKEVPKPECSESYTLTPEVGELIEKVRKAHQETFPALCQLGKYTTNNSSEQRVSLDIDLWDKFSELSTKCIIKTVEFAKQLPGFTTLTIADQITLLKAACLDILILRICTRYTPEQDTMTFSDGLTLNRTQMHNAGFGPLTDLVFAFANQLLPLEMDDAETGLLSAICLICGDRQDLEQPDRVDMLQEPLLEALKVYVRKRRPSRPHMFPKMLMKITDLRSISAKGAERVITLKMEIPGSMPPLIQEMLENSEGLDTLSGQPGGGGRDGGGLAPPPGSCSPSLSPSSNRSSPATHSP
Briefly: Percent transcriptional activation of Retinoic acid receptor RAR alpha at 1 uM compared to 1 uM trans-retinoic acid.

For experiment [4], the system named is MDA-MB-231. Briefly: Inhibition of MDA-MB-231 cell proliferation after seven days at 12.5 uM. It is filed as functional. The conditions noted are these: Homo sapiens, MDA-MB-231, 168 h.
Experiment [5] concerns the target T3, Retinoic acid receptor gamma (Homo sapiens) (UniProt P13631).
T3 sequence (whole entry): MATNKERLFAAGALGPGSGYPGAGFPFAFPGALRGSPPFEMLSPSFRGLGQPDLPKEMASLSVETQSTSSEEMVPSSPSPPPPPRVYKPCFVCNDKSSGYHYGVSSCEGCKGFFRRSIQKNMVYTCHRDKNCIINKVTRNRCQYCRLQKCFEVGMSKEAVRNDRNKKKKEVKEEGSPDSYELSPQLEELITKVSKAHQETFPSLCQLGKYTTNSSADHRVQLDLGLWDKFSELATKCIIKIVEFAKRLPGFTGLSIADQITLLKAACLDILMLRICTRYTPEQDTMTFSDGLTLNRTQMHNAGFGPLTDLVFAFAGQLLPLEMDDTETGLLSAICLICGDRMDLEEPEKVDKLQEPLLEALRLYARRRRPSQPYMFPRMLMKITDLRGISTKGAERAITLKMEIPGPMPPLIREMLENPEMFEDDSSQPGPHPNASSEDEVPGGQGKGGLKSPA
The experiment is described as follows: Percent transcriptional activation of Retinoic acid receptor RAR gamma receptor at 1 uM compared to 1 uM trans-retinoic acid.

In experiment [6] the target is T4, Retinoic acid receptor beta (Homo sapiens) (UniProt P10826).
T4 sequence (whole entry): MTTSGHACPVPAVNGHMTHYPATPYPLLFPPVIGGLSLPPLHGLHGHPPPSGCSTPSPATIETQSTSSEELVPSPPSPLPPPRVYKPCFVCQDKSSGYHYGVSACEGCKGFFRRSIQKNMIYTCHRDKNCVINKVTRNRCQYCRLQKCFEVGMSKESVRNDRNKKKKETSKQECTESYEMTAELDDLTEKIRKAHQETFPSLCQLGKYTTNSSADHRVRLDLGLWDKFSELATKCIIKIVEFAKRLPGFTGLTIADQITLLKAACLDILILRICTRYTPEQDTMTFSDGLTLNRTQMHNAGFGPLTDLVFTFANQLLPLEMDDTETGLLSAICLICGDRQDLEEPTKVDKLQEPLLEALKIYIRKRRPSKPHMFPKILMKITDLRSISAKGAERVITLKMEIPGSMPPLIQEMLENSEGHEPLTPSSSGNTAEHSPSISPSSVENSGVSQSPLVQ
The experiment is described as follows: Percent transcriptional activation of Retinoic acid receptor beta at 1 uM compared to 1 uM trans-retinoic acid.

Experiment [7] deals with MDA-MB-231. Briefly: Effect on MDA-MB-231 cell proliferation; No effect. It is filed as functional, cell-based. The settings on record: Homo sapiens.
Experiment [8] relates to MDA-MB-231. Briefly: Effect on MDA-MB-231 cell proliferation with compound 8; Significant inhibition. It is filed as functional, cell-based. The settings on record: Homo sapiens.
The test system of experiment [9] is MDA-MB-231. The experiment is described as follows: Effect on MDA-MB-231 cell proliferation with trans-RA; No inhibition. The conditions noted are these: Homo sapiens. It is filed as functional, cell-based.
Experiment [10] deals with MDA-MB-231. The experiment is described as follows: Effect on MDA-MB-231 cell proliferation; No inhibition. It is filed as functional, cell-based. The settings on record: Homo sapiens.
Experiment [11] addresses T1, Retinoic acid receptor RXR-alpha. The experiment is described as follows: Transcriptional activation in CV-1 expressing retinoid X receptor RXR alpha.

For the compound `CC1(C)CCC(C)(C)c2cc(C(=C3CC3)c3ccc(C(=O)O)cc3)ccc21`, 1100 nM corresponded to half-maximal inhibition in experiment [1] (IC50). The same compound gave an AC50 in experiment [2] of 5 nM.

`CC1=C(/C=C/C(C)=C\C=C\C(C)=C\C(=O)O)C(C)(C)CCC1` [ALITRETINOIN]: the Activation in [3] is 105%; in experiment [5] it was 126%; in experiment [6], 112%. Besides, the inhibition at 12.5 µM in experiment [4] worked out at 45%.

With `CC(C)=C(c1ccc(C(=O)O)cc1)c1ccc2c(c1)C(C)(C)CCC2(C)C`, the concentration at half-maximal activity (AC50) in experiment [2] came out at 160 nM.

As for `CC1=C(/C=C/C(C)=C/C=C/C(C)=C/C(=O)O)C(C)(C)CCC1`, the outcome in experiment [7] was inactive. The outcome in experiment [8] was Active.

In experiment [2], `CC(C)=C(c1ccc(C(=O)O)cc1)c1cc2c(cc1C)C(C)(C)CCC2(C)C` showed an AC50 of 22 nM. The outcome in experiment [9] and in experiment [10] was inactive.

Take `CC1(C)CCC(C)(C)c2cc(-c3cccc4cc(C(=O)O)ccc34)ccc21`: the concentration at half-maximal activity (AC50) in [11] is > 1000 nM.

Consider `CC(C)/C=C(/c1ccc(C(=O)O)cc1)c1ccc2c(c1)C(C)(C)CCC2(C)C`, for which the AC50 in experiment [2] is > 1000 nM.

For the compound `Cc1cc2c(cc1C(=C1CC1)c1ccc(C(=O)O)cc1)C(C)(C)CCC2(C)C`, the concentration at half-maximal activity (AC50) in [2] was < 10 nM.
